pIC50: −log10 of the molar value.
The compounds below were run against Transthyretin (Homo sapiens, UniProt P02766, V50M) (assay: Inhibition of acid-mediated aggregation of TTR V30M mutant (unknown origin) expressed in Escherichia coli pretreated for 30 mins at pH 7 followed by protein dilution in acetate buffer and further incubated for 96 hrs at pH 4.6 by thioflavin-T fluorescence assay).

Row | Structure (SMILES) | pIC50
1 | Nc1ccc(O)c2c1C(=O)c1c(O)c(S(=O)(=O)O)cc(N)c1C2=O | < 4.00
2 | Cc1ccc2c(=O)c3ccccc3oc2c1 | < 4.00
3 | O=C1c2cccc(O)c2C(=O)c2cccc(O)c21 [ANTHRARUFIN] | < 4.00
4 | O=C1c2ccccc2C(=O)c2c(O)c(O)cc(O)c21 [PURPURIN] | 4.92
5 | O=C(O)c1cc(O)c2c(c1)C(=O)c1cccc(O)c1C2=O [RHEIN] | 4.92
6 | O=C1c2ccc(O)c(O)c2C(=O)c2c(O)ccc(O)c21 [QUINALIZARIN] | < 4.00
7 | O=C(O)c1cc(C(=O)O)c2c(c1)C(=O)c1ccccc1C2=O | < 4.00
8 | O=C(O)c1ccc2c(=O)c3ccccc3oc2c1 | 4.72

Now those with a higher pIC50, led by results:

Row | pIC50 | Structure (SMILES)
9 | 5.04 | O=C(O)c1cc(Cl)c2oc3c(Cl)cccc3c(=O)c2c1
10 | 5.11 | O=C(O)c1ccc2c(=O)c3cccc(Cl)c3oc2c1
11 | 5.00 | O=C(O)c1ccc2c(=O)c3c(Cl)cccc3oc2c1

Source: ChEMBL document CHEMBL4811317, “Inhibitory activities of anthraquinone and xanthone derivatives against transthyretin amyloidogenesis” (Bioorg Med Chem, 2021)
